We go through 19 compounds from PubChem BioAssay AID651630 (Sanford-Burnham Center for Chemical Genomics, 2012).

One test relates to DAPI. The experiment in a line: triacylglycerol accumulation inhibitor potency, dose response, cell-based, panel, Nile Red and DAPI fluorescence, H9c2 (AID 651630).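 Note: cells exposed to compound overnight before fixation and staining.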 To be noted: H9c2 cells, DAPI nuclear fluorescence (cytotoxicity counter-readout), oleic acid.
The subject of a further test is TAG. The test is described as above. To be noted: H9c2 cells, Nile Red TAG fluorescence, oleic acid.

The source made the active and inactive calls.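 Rule for the calls: active = lipid-stain IC50 at or below a set limit, with nuclear-stain toxicity IC50 at least five times higher; inactive = the rest.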 Bounds are passed on as bounds.

As a reminder, the IC50 is the concentration that gives 50% inhibition. Turning to `CC1(c2ccccc2)CC(C)(C)N(C(=O)c2cc([N+](=O)[O-])cc([N+](=O)[O-])c2)c2ccccc21` (centres undefined), the figures for the IC50 cytotoxicity (DAPI nuclear signal decrease) in the test on DAPI (mean of runs), in the test on DAPI (run 1) and in the test with DAPI (run 2) were > 25 µM (inactive), more than 25 µM and more than 25 µM, respectively. The IC50 in the test with TAG (mean of runs) was 9.21 µM; with TAG (run 1), 10.4 µM; in the test on TAG (run 2), 7.99 µM.
Consider `CCOC(=O)c1cc(-c2ccccc2)sc1NC(=S)Nc1cccc(C)n1`, for which the figures for the IC50 cytotoxicity (DAPI nuclear signal decrease) in the test on DAPI (mean of runs), in the test on DAPI (run 1) and in the test on DAPI (run 2) were > 25 µM (inactive), more than 25 µM and more than 25 µM, respectively. Also, the results for the IC50 with TAG (mean of runs), with TAG (run 1) and in the test with TAG (run 2) were > 25 µM (inactive), more than 25 µM and more than 25 µM, respectively.
On to `CCCCCCSc1ccc([C@H]2N[C@@](CC(C)C)(C(=O)OC)[C@H]3C(=O)N(C)C(=O)[C@@H]23)cc1OC`, for which the IC50 cytotoxicity (DAPI nuclear signal decrease) is > 25 µM (inactive) with DAPI (mean of runs), more than 25 µM in the test with DAPI (run 1) and more than 25 µM with DAPI (run 2). The IC50 in the test with TAG (mean of runs) was > 25 µM (inactive); in the test on TAG (run 1) it was more than 25 µM; in the test on TAG (run 2) it was more than 25 µM.
On to `COc1ccc(-c2sc3cc4c(cc3c2C#Cc2ccc(N)cc2)OCO4)cc1`, for which the IC50 cytotoxicity (DAPI nuclear signal decrease) is > 25 µM (inactive) in the test on DAPI (mean of runs), more than 25 µM in the test on DAPI (run 1) and more than 25 µM in the test on DAPI (run 2). Further, the values for the IC50 in the test on TAG (mean of runs), in the test on TAG (run 1) and in the test with TAG (run 2) were > 25 µM (inactive), more than 25 µM and more than 25 µM, respectively.
Take `CN(C)CCNC(=O)c1cccc2ccc(-c3ccc(-c4ccccc4)cc3)nc12`: the values for the IC50 cytotoxicity (DAPI nuclear signal decrease) in the test with DAPI (mean of runs), with DAPI (run 1) and in the test on DAPI (run 2) were > 25 µM (inactive), more than 25 µM and more than 25 µM, respectively. The values for the IC50 in the test on TAG (mean of runs), with TAG (run 1) and in the test on TAG (run 2) were 12.5 µM, 10.6 µM and 14.4 µM, respectively.
With `CC1(C(=O)NCc2cccs2)Cc2c(-c3ccc4c(c3)OCO4)ccnc2O1` (centres undefined), the figures for the IC50 cytotoxicity (DAPI nuclear signal decrease) in the test on DAPI (mean of runs), in the test on DAPI (run 1) and in the test on DAPI (run 2) were > 25 µM (inactive), more than 25 µM and more than 25 µM, respectively. Also, the IC50 with TAG (mean of runs) was > 25 µM (inactive); in the test with TAG (run 1) it was more than 25 µM; in the test on TAG (run 2) it was more than 25 µM.
Regarding `Brc1ccc(C2=Nn3c(nnc3-c3n[nH]c4c3CCC4)SC2)cc1`, the figures for the IC50 cytotoxicity (DAPI nuclear signal decrease) in the test on DAPI (mean of runs), in the test on DAPI (run 1) and in the test on DAPI (run 2) were > 25 µM (inactive), more than 25 µM and more than 25 µM, respectively. For the same compound, the values for the half-maximal inhibitory concentration (IC50) in the test with TAG (mean of runs), in the test on TAG (run 1) and with TAG (run 2) were 13.8 µM, 9.45 µM and 18.1 µM, respectively.
For `CCOC(=O)N1CCN(C(=O)c2ccccc2N(Cc2ccccc2)S(=O)(=O)c2ccc(OC)cc2)CC1`, the IC50 cytotoxicity (DAPI nuclear signal decrease) with DAPI (mean of runs) was > 25 µM (inactive); with DAPI (run 1) it was more than 25 µM; in the test on DAPI (run 2) it was more than 25 µM. Also, the IC50 with TAG (mean of runs) was 19.9 µM (inactive); in the test with TAG (run 1), 24.3 µM; in the test with TAG (run 2), 15.5 µM.
For the compound `COc1cc2c3c(c1)c(C1=NC(=S)NC1=O)c(O)n3C(C)(C)C=C2C`, the IC50 cytotoxicity (DAPI nuclear signal decrease) in the test with DAPI (mean of runs) is > 25 µM (inactive); in the test with DAPI (run 1), more than 25 µM; with DAPI (run 2), more than 25 µM. The half-inhibitory concentration (IC50) with TAG (mean of runs) was 6 µM; in the test on TAG (run 1), 6.7 µM; in the test with TAG (run 2), 5.3 µM.
With `Cc1noc(C)c1CSc1nc2[nH]ncc2c(=O)n1-c1ccccc1`, the IC50 cytotoxicity (DAPI nuclear signal decrease) with DAPI (run 1) and with DAPI (run 2) was more than 25 µM in each case. In addition, the IC50 was 4.41 µM with TAG (mean of runs), 3.41 µM in the test on TAG (run 1) and 5.41 µM with TAG (run 2).
Turning to `CCOc1ccc(OCC)c(NC(=O)CN(c2ccc(C)cc2)S(=O)(=O)c2c(C)noc2C)c1`, the figures for the IC50 cytotoxicity (DAPI nuclear signal decrease) with DAPI (mean of runs), in the test on DAPI (run 1) and with DAPI (run 2) were > 25 µM (inactive), more than 25 µM and more than 25 µM, respectively. In addition, the IC50 is 19.6 µM (inactive) in the test with TAG (mean of runs), 17.1 µM in the test with TAG (run 1) and 22 µM with TAG (run 2).
For the compound `C[C@H]1CCCCO[C@H](CN(C)CC2CCCCC2)[C@@H](C)CN([C@@H](C)CO)C(=O)c2cc(NS(=O)(=O)c3ccccc3)ccc2O1`, the IC50 cytotoxicity (DAPI nuclear signal decrease) in the test with DAPI (mean of runs) was > 25 µM (inactive); with DAPI (run 1), more than 25 µM; in the test on DAPI (run 2), more than 25 µM. Further, the half-inhibitory concentration (IC50) in the test on TAG (run 1) was 22.5 µM; in the test with TAG (run 2) it was more than 25 µM.
On to `O=C(Nc1sc2c(c1-c1nc3ccccc3[nH]1)CCCC2)C1CCCC1`, for which the IC50 cytotoxicity (DAPI nuclear signal decrease) in the test on DAPI (mean of runs) is > 25 µM (inactive); in the test with DAPI (run 1), more than 25 µM; with DAPI (run 2), more than 25 µM. For the same compound, the IC50 was 7.22 µM in the test with TAG (mean of runs), 4.9 µM with TAG (run 1) and 9.54 µM with TAG (run 2).
With `COc1ccc2[nH]c3c(c2c1)CCN1C(=O)C(CC(=O)NC/C=C(\C)CCC=C(C)C)C[C@H](C(=O)N(C(C)C)C(C)C)[C@@]31C` (some centres undefined), the IC50 cytotoxicity (DAPI nuclear signal decrease) in the test on DAPI (run 1) was 19.8 µM; in the test with DAPI (run 2) it was more than 25 µM. Also, the figures for the IC50 in the test on TAG (mean of runs), with TAG (run 1) and in the test with TAG (run 2) were 19.3 µM (inactive), 19.5 µM and 19.1 µM, respectively.
Regarding `CCOC(=O)[C@H]1[C@H]2COc3ccc(Cl)cc3[C@@H]2N2C(=O)c3cc(Cl)ccc3NC(=O)[C@@]12C`, the IC50 cytotoxicity (DAPI nuclear signal decrease) in the test on DAPI (mean of runs) was > 25 µM (inactive); in the test with DAPI (run 1), more than 25 µM; in the test with DAPI (run 2), more than 25 µM. For the same compound, the concentration for half-maximal inhibition (IC50) was 9.03 µM in the test with TAG (mean of runs), 11.6 µM with TAG (run 1) and 6.41 µM in the test on TAG (run 2).
Turning to `CCC(C)NCCOCCOc1ccc(Cl)c2ccccc12` (centres undefined), the IC50 cytotoxicity (DAPI nuclear signal decrease) in the test with DAPI (mean of runs) was > 25 µM (inactive); with DAPI (run 1), more than 25 µM; in the test on DAPI (run 2), more than 25 µM. For the same compound, the values for the IC50 with TAG (run 1) and in the test with TAG (run 2) were more than 25 µM and 17.7 µM, respectively.
With `C[C@@]12C(=O)Nc3ccc(Br)cc3C(=O)N1[C@H]1c3cc(Cl)ccc3OC[C@@H]1[C@@H]2c1ccccc1`, the IC50 cytotoxicity (DAPI nuclear signal decrease) with DAPI (mean of runs) was > 25 µM (inactive); with DAPI (run 1), more than 25 µM; in the test with DAPI (run 2) it was more than 25 µM. The results for the IC50 in the test on TAG (mean of runs), with TAG (run 1) and in the test on TAG (run 2) were 14.6 µM, 9.4 µM and 19.8 µM, respectively.
With `COC(=O)[C@@]1(Cc2ccc(OC)cc2)[C@@H]2C(=CC(=O)[C@H]2CC(=O)C(=O)N2CCCC2)CN1C(=O)c1ccccc1`, the values for the IC50 cytotoxicity (DAPI nuclear signal decrease) in the test on DAPI (run 1) and in the test with DAPI (run 2) were 21 µM and more than 25 µM, respectively. For the same compound, the IC50 was > 25 µM (inactive) in the test with TAG (mean of runs), more than 25 µM with TAG (run 1) and more than 25 µM in the test on TAG (run 2).
As to `COC(=O)C1=C(c2cc3ccccc3s2)C[C@@H]2CC[C@H]1N2C(=O)N1CCOCC1`, the figures for the IC50 cytotoxicity (DAPI nuclear signal decrease) in the test on DAPI (mean of runs), with DAPI (run 1) and in the test on DAPI (run 2) were > 25 µM (inactive), more than 25 µM and more than 25 µM, respectively. The IC50 in the test on TAG (mean of runs) was > 25 µM (inactive); in the test on TAG (run 1) it was more than 25 µM; in the test with TAG (run 2), more than 25 µM.
